Common to all, as to format: cell-based
Assay [1] deals with canonical Wnt signaling. The assay can be described thus: ST-Luc (SuperTOPFlash) Luciferase assay in HEK293 cells, 30% Wnt3a-CM. The conditions noted are these: Homo sapiens, HEK293; 10 μM compound, 30% Wnt3a-CM, 24 h; relative to DMSO control. Here is the method:
Inhibition of Wnt signaling by compound No. 1 was quantified in vitro using a Luciferase assay in HEK293 cells transiently transfected with SuperTOPFlash plasmid (ST-Luc) (Veeman M T et al., Curr. Biol. 13: 680-685, 2003) at concentrations from 0.1-10 μM. HEK293 cells were purchased from ATCC (American Type Culture Collection) and maintained according to suppliers recommendations.
Transfection was performed using 80000 HEK293 cells seeded in 48-well plates coated with poly-L lysine. After 24 hours, 0.25 μg total plasmid DNA (0.23 μg SuperTOPFlash+0.02 μg pRL-TK (Renilla)—Promega) and 0.75 μl FuGENE6 (Roche) was combined in a total volume in 25 μl Opti-MEM® (Invitrogen) as described by the manufacturer (Roche). The transfection mixture was added to the plated cells and media were changed after 24 hours.
The Luciferase assay was performed by incubating transfected cells for 24 hours with various concentrations of compound No. 1 in 30% Wnt3a-CM (Wnt3a containing conditioned medium from L Wnt3a cells was harvested as described by ATCC). All treated reporter cells were finally lysed and the firefly luciferase and Renilla activities were measured on a 20/20n Luminometer (Turner BioSystems) as described in the Dual-Glo™ Luciferase Assay System Technical Manual (Promega).
HEK293 cells were transfected, grown and assayed as described in Example 22. 24 hours after seeding, the cells were incubated for an additional 24 hours with 10 μM concentrations of compounds in 30% Wnt3a-CM.
The percent activities shown in Table 3 are calculated relative to DMSO as a control. Some values shown are averages of multiple measurements. Compound XAV939 (Novartis; Huang et al., Nature (2009), 461, pp. 614-20) which is used as a positive control, has an activity of 7%.

Assay [2] concerns canonical Wnt signaling. Description: IC50 in STF/REN HEK293 cells, 50% Wnt3a-CM. The conditions noted are these: Homo sapiens; STF/REN HEK293, 50% Wnt3a-CM, 24 h. On the procedure: IC50 values were calculated using STF/REN HEK293 cells prepared essentially according to Example 22. Briefly, HEK293 cells (80,000 cells per well) were seeded in 48-well plates coated with poly-L lysine. 24 hours after seeding, the cells were incubated for an additional 24 hours with various compound concentrations in 50% Wnt3a-CM. After compound exposure, the cells were lysed and the firefly luciferase and Renilla activities were measured on a 20/20n Luminometer (Turner BioSystems) as described in the Dual-Glo™ Luciferase Assay System Technical Manual (Promega).
(§1) XLfit (idbs) was used to determine the IC50 and GI50 values in inhibition experiments. The data were fit to the following formulae:
IC50: Langmuir Binding Isotherm: fit=((A+(B*x))+(((C−B)*(1−exp((−1*D)*x)))/D)) res=(y−fit)

The test system of assay [3] is SW480 cells. The assay can be described thus: Growth inhibition (GI50) MTS assay. The conditions noted are these: Homo sapiens, 72 h. On the procedure:
Growth inhibition curves were prepared using SW480 cells, prepared essentially according to Example 23. SW480 cells (3000 cells per well) were seeded on 96 well plates (eight replicates per treatment). 24 hours later and daily thereafter, cell culture media (including 10% FBS) was mixed with various compound concentrations or with 0.1% DMSO vehicle and then added to the wells. Sixteen wells of seeded control cells, defining incubation time zero (to =24 hour after cell seeding), were incubated with […] substrate in 100 μl of phenol-free D-MEM (Invitrogen) for 2 hours, as described in the CellTiter 96® AQueous Non-Radioactive Cell Proliferation Assay protocol (MTS, Promega). The A490 was recorded. The treatment samples were likewise measured after 72 hours. The following formula was used to determine the single well relative A490 sample values: ((Sample A490−Average A490t0)*100)/(Average A490t720.1% DMSO control−Average A490t0)
as §1
GI50: Eadie-Hofstee Model: fit=(A+((B*x)/((C*(D+1))+x))) inv=(((y−A)*(C*(D+1)))/((A+B)−y)) res=(y−fit)
On the technique in general: Formazan colour is commonly taken as a measure of viable cells.

The test system of assay [4] is SW480 colon carcinoma cells. The assay can be described thus: MTS cell proliferation assay, Table 5. Particulars: Homo sapiens; SW480, 10 μM, 72 h; relative to DMSO control; read-out: Cell proliferation (%) for test compounds. Here is the method:
For the experiment giving the results shown in Table 5, cells (3000 per well) were seeded on 96 well plates (eight replicates per treatment). After 24 hours, and daily thereafter, cell culture medium (including 10% FBS) was mixed with 10 μM compounds or with 0.1% DMSO vehicle and then added to the wells. Sixteen wells of seeded control cells, defining incubation time zero (t0=24 hour after cell seeding), were incubated with 20 μl substrate in 100 μl phenol free D-MEM (Invitrogen) for 2 hours, as described in the CellTiter 96® AQueous Non-Radioactive Cell Proliferation Assay protocol (Promega). The A490 was recorded. The treatment samples were likewise measured after 72 hours.
The quantity of reduced MTS product (as measured by the absorbance at 490 nm) is directly proportional to the number of living cells in the culture and thus allows a direct comparison of cell proliferation in each case. DMSO was used as a control. The following formula was used to determine single well relative A490 sample values: ((Sample A490−Average A490t0)*100)/(Average A490t720.1% DMSO control−Average A490t0)
The proliferation of SW480 cells (in percent) is the A492 value relative to that of the DMSO control.

The term IC50 denotes the midpoint of a concentration-inhibition curve. A higher IC50 goes with a need for much substance. For orientation: GI50 means the concentration that inhibits growth by half. Low values mean greater sensitivity of the cells, high ones lower sensitivity of the cells.

In assay [1], `COc1ccc(-n2c(NCc3nc(-c4ccc(C)cc4)no3)nnc2-c2ccncc2)cc1` [Compound 19] gave an activity at 10 µM of 44.1%. Moreover, half-maximal inhibition in assay [2] (IC50) was put at 8800 nM. This molecule also gave a GI50 in assay [3] above 25000 nM.
For the molecule `COc1ccc(-n2c(SCc3nc(-c4ccc(Cl)cc4)no3)nnc2-c2ccncc2)cc1` [Compound 5], the activity at 10 µM in assay [1] stood at 10%. The molecule further showed an IC50 in assay [2] of 950 nM. In assay [3], this molecule had a concentration for 50% growth inhibition (GI50) of 10000 nM.
Turning to `Clc1cc(Cl)cc(-c2nnc(CSc3nnc(-c4ccncc4)n3-c3ccccc3Cl)o2)c1` [compound 117, 4-(5-((5-(3,5-dichlorophenyl)-1,3,4-oxadiazol-2-yl)methylthio)-4-(2-chlorophenyl)-4H-1,2,4-triazol-3-yl)pyridine], the activity at 10 µM in assay [4] turned out to be 85%; in assay [1], 9%. This molecule also returned an IC50 in assay [2] of 834 nM.
`Cc1ccc(-c2noc(CSc3nnc(-c4ccncc4)n3-c3ccccc3F)n2)cc1` [Compound 42] registered an activity at 10 µM in assay [1] of 14.6%. In addition, in assay [2], the IC50 worked out at 400 nM. The concentration for 50% growth inhibition (GI50) in assay [3] is 8000 nM.
In the case of `Cc1ccc(-c2noc(CSc3nnc(-c4ccncc4)n3-c3ccccc3C)n2)cc1` [Compound 7], the activity at 10 µM in assay [1] amounted to 5.6%. Also, in assay [2], the IC50 came to 880 nM. Also, it took 7500 nM to inhibit growth in assay [3] by half (GI50).
In the case of `Clc1ccc(-c2nnc(CSc3nnc(-c4ccncc4)n3-c3ccccc3Cl)o2)cc1Cl` [compound 130, 4-(5-((5-(3,4-dichlorophenyl)-1,3,4-oxadiazol-2-yl)methylthio)-4-(2-chlorophenyl)-4H-1,2,4-triazol-3-yl)pyridine], the activity at 10 µM was 72% in assay [4] and 9% in assay [1]. This molecule also registered a 50% inhibitory concentration (IC50) in assay [2] of 151 nM.
Consider `Clc1ccc(-c2nnc(CSc3nnc(-c4ccncc4)n3-c3ccccc3Cl)o2)c(Cl)c1` [compound 114, 4-(5-((5-(2,4-dichlorophenyl)-1,3,4-oxadiazol-2-yl)methylthio)-4-(2-chlorophenyl)-4H-1,2,4-triazol-3-yl)pyridine], for which the activity at 10 µM amounted to 69% in assay [4] and 4.2% in assay [1]. In assay [2], this molecule showed an IC50 of 795 nM.
Regarding `Clc1ccc(-c2nnc(CSc3nnc(-c4ccncc4)n3-c3ccccc3Cl)o2)cc1` [compound 113, 4-(5-((5-(4-chlorophenyl)-1,3,4-oxadiazol-2-yl)methylthio)-4-(2-chlorophenyl)-4H-1,2,4-triazol-3-yl)pyridine], the values for the activity at 10 µM in assay [4] and in assay [1] were 56% and 4.9%, respectively. The molecule also gave an IC50 in assay [2] of 59 nM.
`Cc1ccc(-c2nnc(CSc3nnc(-c4ccnc(O)c4)n3-c3ccccc3Cl)o2)cc1` [compound 116, 4-(5-((5-p-tolyl-1,3,4-oxadiazol-2-yl)methylthio)-4-(2-chlorophenyl)-4H-1,2,4-triazol-3-yl)pyridin-2-ol]: the activity at 10 µM in assay [4] was 70%; in assay [1] it was 7%. In assay [2], this molecule registered an IC50 of 262 nM.
In the same order, the values of `Cc1ccc(-c2nnc(CSc3nnc(-c4ccc(F)cc4F)n3-c3ccccc3Cl)o2)cc1` [compound 110, 3-((5-p-tolyl-1,3,4-oxadiazol-2-yl)methylthio)-4-(2-chlorophenyl)-5-(2,4-difluorophenyl)-4H-1,2,4-triazole] are 50%, 2% and 872 nM.
In the same order, the values of `Cc1ccc(-c2nnc(CSc3nnc(-c4ccc(Cl)nc4)n3-c3ccccc3Cl)o2)cc1` [Compound 108] are 42%, 0.8% and 218 nM.
As to `Cc1ccc(-c2nnc([C@@H](C)Sc3nnc(-c4ccncc4)n3-c3ccccc3Cl)o2)cc1` [99b], the activity at 10 µM in assay [4] is 72%; in assay [1], 12%. In assay [2], this molecule yielded a concentration for half-maximal inhibition (IC50) of 163 nM.
Regarding `Cc1ccc(-c2nnc(CSc3nnc(-c4ccc(Cl)cc4Cl)n3-c3ccccc3Cl)o2)cc1` [compound 112, 3-((5-p-tolyl-1,3,4-oxadiazol-2-yl)methylthio)-5-(2,4-dichlorophenyl)-4-(2-chlorophenyl)-4H-1,2,4-triazole], the activity at 10 µM worked out at 39% in assay [4] and 0.3% in assay [1]. Further, the concentration for half-maximal inhibition (IC50) in assay [2] stood at 688 nM.
As to `Cc1ccc(-c2nnc(CSc3nnc(-c4ccc(Cl)c(Cl)c4)n3-c3ccccc3Cl)o2)cc1` [compound 131, 3-((5-p-tolyl-1,3,4-oxadiazol-2-yl)methylthio)-4-(2-chlorophenyl)-5-(3,4-dichlorophenyl)-4H-1,2,4-triazole], the activity at 10 µM amounted to 53% in assay [4] and 4% in assay [1].
In the case of `Cc1ccc(-c2nnc(CSc3nnc(-c4ccncn4)n3-c3ccccc3Cl)o2)cc1` [compound 105, 4-(5-((5-p-tolyl-1,3,4-oxadiazol-2-yl)methylthio)-4-(2-chlorophenyl)-4H-1,2,4-triazol-3-yl)pyrimidine], the activity at 10 µM in assay [4] is 54%; in assay [1], 4.4%. For the same molecule, inhibition in assay [2] was half-maximal at 29 nM (IC50).
For the molecule `Cc1ccc(-c2nnc(CSc3nnc(-c4cc(O)cc(O)c4)n3-c3ccccc3Cl)o2)cc1` [compound 106, (5-((5-p-tolyl-1,3,4-oxadiazol-2-yl)methylthio)-4-(2-chlorophenyl)-4H-1,2,4-triazol-3-yl)benzene-1,3-diol], the activity at 10 µM in assay [4] came out at 63%; in assay [1] it was 14.5%.
As to `Cc1ccc(-c2nnc(CSc3nnc(-c4ccncc4)n3-c3ccccc3Cl)o2)c(Br)c1` [compound 72], the activity at 10 µM in assay [4] worked out at 55%; in assay [1] it was 20%. For the same molecule, the midpoint of inhibition in assay [2], the IC50, lay at 551 nM.
For `Cc1ccc(-n2c(SC(C)c3nc(-c4ccncc4)no3)nnc2-c2ccncc2)cc1C` (stereo not shown) [Compound 79], the values for the activity at 10 µM in assay [4] and in assay [1] were 70% and 16%, respectively.
`Cc1ccc(-c2nnc(CCc3nnc(-c4ccncc4)n3-c3ccccc3Cl)o2)cc1` [compound 101]: the activity at 10 µM was 47% in assay [4] and 23% in assay [1].
As to `Cc1ccc(-c2nnc(CSc3nnc(-c4ccc(F)cc4)n3-c3ccccc3Cl)o2)cc1` [compound 115, 3-((5-p-tolyl-1,3,4-oxadiazol-2-yl)methylthio)-4-(2-chlorophenyl)-5-(4-fluorophenyl)-4H-1,2,4-triazole], the activity at 10 µM in assay [4] was found to be 60%; in assay [1] it was 5%.
With `Cc1ccc(-c2nnc(CSc3nnc(-c4ccncc4)n3-c3ccccc3Cl)o2)cn1` [compound 68], the activity at 10 µM in assay [4] amounted to 60%; in assay [1], 17%. The half-maximal inhibitory concentration (IC50) in assay [2] is 381 nM.

The record behind these values is patent US8883827B2, “Azole derivatives as WTN pathway inhibitors” (Oslo University Hospital HF, priority 2009, dated 2014).
